Experimental data reported in patent US4215049A, “Antitumorigenic lactone derivative” (Nippon Kayaku Kabushiki Kaisha, priority 1977, dated 1980).
≈ marks a conversion by molar mass, not a printed value.

What was measured:
HeLa S3 cells = experiment: Inhibitory effect against growth of HeLa S3 cells (in vitro); type: cell-based; conditions: for IC50: 72 h, HeLa S3 cells, read-out: ID50 (the source's name); for inhibitory effect against growth of cancer (HeLa) cells (in words): low concentration
Protocol: The roots (0.3 kg by half-dry weight), stalks (1.6 kg by half-dry weight) and leaves (2.1 kg by half-dry weight) were ground and extracted respectively with methanol. Each liquid extract was filtered and the filtrate was concentrated under reduced pressure to obtain an oily residue containing the object compounds.
(Note) The inhibitory effect against growth of the HeLa cells was determined in the manner described below.
The HeLa S3 cells were spread on 6 cm-diameter plastic laboratory plates in the amount of 0.7×10^5 cells/plate and cultured by using an MEM medium containing 60 μg/ml of kanamycin and 10% calf serum. 2 days later, the medium was replaced with one containing the compounds of this invention. The cell population at that time was 1.58×10^5 cells/plat. After addition of the compounds, the cells were cultured for three days, and then, after removing the medium, the culture was washed with a physiological saline solution, treated with 0.05% trypsin at room temperature for about 15 minutes, and then pipetted and dispersed. The number of surviving cells was counted by a […], and percent inhibition was measured by counting the number of the living cells in the control section to determine ID50. [formula]

[1] = tested on: Ehrlich ascites cancer cells; experiment: Life-prolonging effect for mice suffering from Ehrlich ascites cancer; type: in vivo, mice (ICR/JCL); conditions: for Life prolongation rate: average survival days, control group indexed as 100; for life-prolonging effect for mice with Ehrlich ascites cancer (in words): in comparison with the control mice
Protocol: The mice of ICR/JCL species (.male., 5-week-old, 5 mice per group) were intraperitoneally inoculated with 2,000,000 pieces of Ehrlich ascites cancer cells, and the compounds of this invention were administered, starting 2 hours after inoculation, in the dosages shown in Table 5 below once a day for a total period of 10 days.
the drug treated groups as calculated with the average number of survival
days of the control group being indexed as 100.

[2] = 7.50 mg/kg once a day for 10 days
[3] = 15.0 mg/kg once a day for 10 days

C=C1C(=O)OC2C=C(C)C(OC(C)=O)CC=C(C)CC(OC(=O)C(=CCO)CO)C12 (stereo not shown) [Compound I]
IC50 (HeLa S3 cells; Homo sapiens, 3 days): 1.4 µg/mL (≈ 3.33 µM) | inhibition at 1 µg/mL (HeLa S3 cells; Homo sapiens, HeLa S3, 72 h, 1 μg/ml, 3 days, read-out: Percent inhibition): 29.4% | inhibition at 2 µg/mL (HeLa S3 cells; Homo sapiens, HeLa S3, 72 h, 2 μg/ml, 3 days, read-out: Percent inhibition): 74.9% | inhibition at 4 µg/mL (HeLa S3 cells; Homo sapiens, HeLa S3, 72 h, 4 μg/ml, 3 days, read-out: Percent inhibition): 100% | inhibitory effect against growth of cancer (HeLa) cells (in words) (HeLa S3 cells): high inhibitory effect against growth of the cancer cells | Life prolongation rate [1, 2]: 253 | Life prolongation rate [1, 3]: 232 | life-prolonging effect for mice with Ehrlich ascites cancer (in words) [1]: prominent life-prolonging effect

C=C1C(=O)OC2C=C(C)C(OC(C)=O)CC=C(C)CC(OC(=O)C(C)=CCO)C12 (stereo not shown) [II]
IC50 (HeLa S3 cells; Homo sapiens, 3 days): 0.62 µg/mL (≈ 1.53 µM) | inhibition at 0.375 µg/mL (HeLa S3 cells; Homo sapiens, HeLa S3, 72 h, 0.375 μg/ml, 3 days, read-out: Percent inhibition): 28.4% | inhibition at 0.75 µg/mL (HeLa S3 cells; Homo sapiens, HeLa S3, 72 h, 0.75 μg/ml, 3 days, read-out: Percent inhibition): 57% | inhibition at 1.5 µg/mL (HeLa S3 cells; Homo sapiens, HeLa S3, 72 h, 1.5 μg/ml, 3 days, read-out: Percent inhibition): 100% | inhibitory effect against growth of cancer (HeLa) cells (in words) (HeLa S3 cells): high inhibitory effect against growth of the cancer cells | Life prolongation rate [1, 2]: 159 | Life prolongation rate [1, 3]: 173 | life-prolonging effect for mice with Ehrlich ascites cancer (in words) [1]: prominent life-prolonging effect

C=C1C(=O)OC2C=C(C)C(OC(C)=O)CC=C(C)CC(O)C12 (stereo not shown) [III]
Life prolongation rate [1, 2]: 95 | Life prolongation rate [1, 3]: 108 | effect of compound III compared with compounds I and II (in words) ([1]; mouse, in vivo): not so conspicuous in effect as the compounds I and II
